According to patent US8258119B2, “Anti-cancer drugs and uses relating thereto for metastatic malignant melanoma and other cancers” (Kasina Laila Innova Pharmaceuticals, priority 2008, dated 2012):

How the values were obtained:
[1] = test system: Vascular Endothelial Growth Factor (VEGF); experiment: VEGF expression in B16F0 cells by western blot; format: cell-based, mouse; settings: 50 μg/ml, 24 h
Description: B16F0 cells were cultivated in Dulbecco's modified Eagle's red medium (DMEM) (Sigma Life Science, USA) containing 10% fetal bovine serum (FBS) and 4.5 g/l D-glucose. Equal number cells (5×10^4) were seeded in culture dishes (35×10 mm, 11.7 cm^2). The cells were treated with either 50 μg/ml of DTIC or […] for 24 h. The cells incubated with only 0.1% DMSO was considered as vehicle control. After 24 h, the cell lysates were prepared and analyzed for Vascular Endothelial Growth Factor (VEGF) expression by western blot assay as described earlier with appropriate modifications (43).
For Western blot analyses, equal amount of B16F0 cell lysate proteins were separated in 12.5% SDS-PAGE under reducing conditions, and transferred onto nitrocellulose membranes (Bio-Rad, USA). The membranes were blocked with SuperBlock (Thermo scientific, USA) and subsequently reacted with VEGF antibody (Abeam, UK) at 4° C. overnight. Bound antibodies were probed with horseradish peroxidase conjugated secondary antibody and the specific immunoreactions were developed with enhanced chemiluminescence (Thermo scientific, USA). […] The images of immunoreactive bands were captured in Kodak Image Station 4000MM (Carestream Health Inc., New Haven, Conn.) and analyzed densitometrically by Kodak molecular Imaging software, Version 4.5.

[2] = test system: B16F0 cells; experiment: B16F0 mouse melanoma cell invasion assay (Matrigel); format: cell-based; settings: 100 μg/ml, 24 h, compared to vehicle or DTIC
Description: The inhibitory effects of DTIC and […] on In vitro invasive ability of B16F0 were tested in cell invasion assay performed with by using Matrigel (BME Cultrex®, R&D Systems, USA) coated cell culture inserts (Becton Dickinson, USA) with 8 μm-pore membrane. Equal number (fifty thousands) of B16F0 cells were applied in each insert well and allowed to attach for 2 h at 37° C. and in presence of 5% CO2. Thereafter, the cellular invasion through the matrigel layer was performed in presence or absence of test compounds. Either 100 μg/ml of DTIC or Compound 6 was applied in the lower chamber of the invasion assembly. 0.1% DMSO was applied in the vehicle control culture chambers. After 24 h treatment, the matrigel layer containing cells was removed with cotton plug and the invaded cells on the other side of the membrane were fixed with methanol for 5 min and then stained with Giemsa. The stained membrane was mounted on a glass slide and number invaded cells were counted in 20 random fields (20× objective) under a light microscope (Nikon Eclipse TS 100).

[3] = cited from earlier work
[4] = at therapeutic concentrations; cited from earlier work
[5] = patient with renal and hepatic dysfunctions

In the case of `CN(C)/N=N/c1ccsc1C(=O)O` [Compound 6, 3-[(dimethylamino)diazenyl]thiophene-2-carboxylic acid], the VEGF protein expression [1] is reported as “down regulation of VEGF protein”, the tumor cell invasion [2] is reported as “significantly reduced malignant tumor cell invasion” and the melting point is reported as 108 to 110 °C.
For `CN(C)/N=N/c1[nH]cnc1C(N)=O` [DTIC, 5-(3,3-dimethyl-1-trizeno)-imidazole-4-carboxamide, reference compound], the “average cumulative excretion of unchanged DTIC in the urine” value ([3]; in six hours) is given as 40 % of the injected dose, the initial half life [3, 5] is given as 55 min and the terminal half life [3, 5] is given as 432 min. The “initial half life of disappearance from the plasma” value ([3]; plasma, biphasic) was 19 min, the “terminal half life of disappearance from the plasma” value ([3]; plasma, biphasic) was “five” and the “binding to human plasma protein” value [4] was “not appreciably bound”.
